Values after ≈ are worked out from the molar mass of the structure shown.
Key:
Trichomonas vaginalis [1] = assay: Antiparasitic activity against Trichomonas vaginalis GT3 after 48 hr by Alamar blue assay; format: functional, organism-based; settings: GT3, 48 h
[2] = Partition coefficient, log P of compound at 1:2 1-octanol/water volume ratio by spectrophotometer; format: physicochemical
Trichomonas vaginalis [3] = assay: Antiparasitic activity against Trichomonas vaginalis GT3 after 24 hr by Alamar blue assay; format: functional; settings: GT3, 24 h
[4] = Partition coefficient, log P of compound at 1:1 1-octanol/water volume ratio by spectrophotometer; format: physicochemical
[5] = Partition coefficient, log P of compound at 2:1 1-octanol/water volume ratio by spectrophotometer; format: physicochemical

| Structure (SMILES) | EC50 (Trichomonas vaginalis [1]) [µM] | MIC (Trichomonas vaginalis [1]) [µM] | logP [2] | MIC (Trichomonas vaginalis [3]) [µM] | logP [4] | logP [5] |
| --- | --- | --- | --- | --- | --- | --- |
| O=[N+]([O-])c1cnc2ccccn12 | 2.45 | 3.07 (≈ 0.501 µg/mL) | 0.96 | 3.01 (≈ 0.491 µg/mL) | 0.938 | 0.922 |
| CCOC(=O)c1nc2ccccn2c1[N+](=O)[O-] | 3.96 | 2.13 (≈ 0.501 µg/mL) | 1.04 | 2.13 (≈ 0.501 µg/mL) | 0.983 | 0.963 |
| O=C(O)c1nc2ccccn2c1[N+](=O)[O-] | 21.1 | 19.3 (≈ 4 µg/mL) | -0.042 | 19.3 (≈ 4 µg/mL) | -0.041 | -0.038 |
| CCOC(=O)c1nc2cccc(C)n2c1[N+](=O)[O-] | 9.11 | 4.02 (≈ 1 µg/mL) | 1.2 | 4.02 (≈ 1 µg/mL) | 1.27 | 1.3 |
| NC(=O)c1nc2ccccn2c1[N+](=O)[O-] | 41.3 | 9.71 (≈ 2 µg/mL) | -0.569 | 9.71 (≈ 2 µg/mL) | -0.515 | -0.54 |
| Cc1cccc2nc(C(N)=O)c([N+](=O)[O-])n12 | 14.6 | 9.09 (≈ 2 µg/mL) | 0.69 | 9.09 (≈ 2 µg/mL) | 0.67 | 0.695 |
| O=[N+]([O-])c1c(NC2CCCCC2)nc2ccccn12 | 61.5 | 30.8 (≈ 8.02 µg/mL) | 1.5 | 61.5 (≈ 16 µg/mL) | 1.54 | 1.5 |
| N#Cc1nc2ccccn2c1[N+](=O)[O-] | 9.68 | 2.66 (≈ 0.5 µg/mL) | 0.641 | 5.32 (≈ 1 µg/mL) | 0.691 | 0.692 |
| Cc1cccc2nc(C#N)c([N+](=O)[O-])n12 | 12.1 | 2.48 (≈ 0.501 µg/mL) | 1.12 | 4.95 (≈ 1 µg/mL) | 1.19 | 1.08 |
| Cc1cccc2nc(NC3CCCCC3)c([N+](=O)[O-])n12 | 64.3 | 29.2 (≈ 8.01 µg/mL) | 1.5 | 58.4 (≈ 16 µg/mL) | 1.56 | 1.5 |
| Cc1ncc([N+](=O)[O-])n1CCO [METRONIDAZOLE] | 1.2 | 2.92 (≈ 0.5 µg/mL) | 0.11 | 2.92 (≈ 0.5 µg/mL) | 0.12 | 0.115 |
